Key:
[1] = test system: representative cancer cell line; experiment: Vacuolization and disruption of intracellular trafficking in cells; conditions: live cells treated with 500 nM, 24 h
456 kinases = type: binding

`Cc1cccc(/C=N/Nc2cc(N3CCOCC3)nc(OCCc3ccccn3)n2)c1` [apilimod] was tested, and the vacuolization [1] was “induces vacuolization” and the “binding to panel of 456 kinases” value (456 kinases) was “did not bind to any of the 456 kinases tested”.

Source: patent US10729694B2 (AI Therapeutics, Inc., priority 2015, dated 2020)
